Experimental data: patent US20260285850A1, “SUBSTITUTED OXAZOLIDINONES AND IMIDAZOLINONES AS HERBICIDES” (FMC CORPORATION, priority 2023, published 2026)

How the values were obtained:
Format in all cases: in vivo
kochia (Bassia scoparia) [1] = experiment: Test A preemergence soil spray, visual injury rating 0-100; conditions: 10 days
Outline: (§1)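 Seeds sown in loam-sand blend got a preemergence directed soil spray, or emerged plants (2-10 cm, one- to two-leaf) got a postemergence spray, of compound in non-phytotoxic solvent with surfactant. After 10 days in greenhouse, injury rated visually versus untreated controls on a 0 (no effect) to 100 (complete control) scale.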

corn (Zea mays) [2] = experiment: as above; conditions: 10 days
Outline: as §1

[3] = tested on: wheat (Triticum aestivum); experiment: as above; conditions: 10 days
Outline: as §1

[4] = tested on: ryegrass, Italian (italian ryegrass, Lolium multiflorum); experiment: as above; conditions: 10 days
Outline: as §1

soybean (Glycine max) [5] = experiment: as above; conditions: 10 days
Outline: as §1

[6] = tested on: blackgrass (Alopecurus myosuroides); experiment: as above; conditions: 10 days
Outline: as §1

[7] = tested on: ragweed (common ragweed, Ambrosia artemisiifolia); experiment: as above; conditions: 10 days
Outline: as §1

[8] = tested on: green foxtail (Setaria viridis); experiment: as above; conditions: 10 days
Outline: as §1

[9] = tested on: palmer (palmer amaranth, palmer pigweed, Amaranthus palmeri); experiment: as above; conditions: 10 days
Outline: as §1

[10] = tested on: oat, wild (wild oat, Avena fatua); experiment: as above; conditions: 10 days
Outline: as §1

[11] = tested on: barnyardgrass (Echinochloa crus-galli); experiment: as above; conditions: 10 days
Outline: as §1

[12] = tested on: ducksalad (Heteranthera limosa); experiment: Test B flooded paddy test, visual plant response rating 0-100; conditions: 250 g ai/ha, Flood, applied to paddy water, evaluated after 13 days
Outline: (§2)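 Visual evaluation after 13 days. Water-applied treatment, 3 cm flood depth held constant, plants at 2-leaf stage at treatment.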

[13] = tested on: sedge, umbrella (small-flower umbrella sedge, Cyperus difformis); experiment: as above; conditions: 250 g ai/ha, Flood, applied to paddy water, evaluated after 13 days
Outline: as §2

rice (Oryza sativa) = experiment: as above; conditions: 250 g ai/ha, Flood, applied to paddy water, evaluated after 13 days
Outline: as §2

[14] = tested on: barnyardgrass (Echinochloa crusgalli); experiment: as above; conditions: 250 g ai/ha, Flood, applied to paddy water, evaluated after 13 days
Outline: as §2

[15] = tested on: galium (catchweed bedstraw, Galium aparine); experiment: Test A postemergence application, visual injury rating 0-100
Outline: as §1

kochia (Bassia scoparia) [16] = experiment: as above
Outline: as §1

corn (Zea mays) [17] = experiment: as above
Outline: as §1

[18] = tested on: wheat (Triticum aestivum); experiment: as above
Outline: as §1

[19] = tested on: ryegrass, Italian (italian ryegrass, Lolium multiflorum); experiment: as above
Outline: as §1

soybean (Glycine max) [20] = experiment: as above
Outline: as §1

[21] = tested on: blackgrass (Alopecurus myosuroides); experiment: as above
Outline: as §1

[22] = tested on: ragweed (common ragweed, Ambrosia artemisiifolia); experiment: as above
Outline: as §1

[23] = tested on: green foxtail (Setaria viridis); experiment: as above
Outline: as §1

[24] = tested on: palmer (palmer amaranth, palmer pigweed, Amaranthus palmeri); experiment: as above
Outline: as §1

[25] = tested on: oat, wild (wild oat, Avena fatua); experiment: as above
Outline: as §1

[26] = tested on: horseweed (Erigeron canadensis); experiment: as above
Outline: as §1

[27] = tested on: barnyardgrass (Echinochloa crus-galli); experiment: as above
Outline: as §1

[28] = 62 g ai/ha, 0 = no effect, 100 = complete control
[29] = 62 g ai/ha, postemergence, 10 days, 0 = no effect, 100 = complete control
[30] = Postemergence, 16 g ai/ha, greenhouse 10 days, 0 no effect, 100 complete control

COC(=O)C1CC(NC(=O)C2(C)CN(c3cc(F)cc(F)c3)C(=O)O2)C1 (stereo not shown) [Compound 118, methyl 3-[[3-(3,5-difluorophenyl)-5-methyl-2-oxo-oxazolidine-5-carbonyl]amino]cyclobutanecarboxylate]
Kochia plant response rating (kochia (Bassia scoparia) [1]; 16 g ai/ha, 0 to 100 scale): 0
Kochia plant response rating (0-100) (kochia (Bassia scoparia) [1]; [28]): 60
Corn plant response rating (corn (Zea mays) [2]; 16 g ai/ha, 0 to 100 scale): 30
Corn plant response rating (0-100) (corn (Zea mays) [2]; [28]): 90
Wheat plant response rating ([3]; 16 g ai/ha, 0 to 100 scale): 20
Wheat plant response rating (0-100) [3, 28]: 80
Ryegrass, Italian plant response rating ([4]; 16 g ai/ha, 0 to 100 scale): 20
Ryegrass, Italian plant response rating (0-100) [4, 28]: 80
Soybean plant response rating (soybean (Glycine max) [5]; 16 g ai/ha, 0 to 100 scale): 0
Soybean plant response rating (0-100) (soybean (Glycine max) [5]; [28]): 30
Blackgrass plant response rating ([6]; 16 g ai/ha, 0 to 100 scale): 30
Blackgrass plant response rating (0-100) [6, 28]: 90
Ragweed plant response rating ([7]; 16 g ai/ha, 0 to 100 scale): 0
Ragweed plant response rating (0-100) [7, 28]: 0
Foxtail, Green plant response rating ([8]; 16 g ai/ha, 0 to 100 scale): 60
Foxtail, Green plant response rating (0-100) [8, 28]: 90
Pigweed, Palmer plant response rating ([9]; 16 g ai/ha, 0 to 100 scale): 20
Pigweed, Palmer plant response rating (0-100) [9, 28]: 50
Oat, Wild plant response rating ([10]; 16 g ai/ha, 0 to 100 scale): 90
Oat, Wild plant response rating (0-100) [10, 28]: 90
Barnyardgrass plant response rating ([11]; 16 g ai/ha, 0 to 100 scale): 10
Barnyardgrass plant response rating (0-100) [11, 28]: 80
Plant response rating, Ducksalad (0 to 100 scale, 0 is no effect and 100 is complete control) [12]: 0
Plant response rating, Sedge, Umbrella (0 to 100 scale, 0 is no effect and 100 is complete control) [13]: 0
Plant response rating, Rice (0 to 100 scale, 0 is no effect and 100 is complete control) (rice (Oryza sativa)): 0
Plant response rating, Barnyardgrass (0 to 100 scale, 0 is no effect and 100 is complete control) [14]: 0
Galium plant response rating (0-100) [15, 29]: 60
Galium plant response rating (0 to 100 scale) [15, 30]: 50
Kochia plant response rating (0-100) (kochia (Bassia scoparia) [16]; [29]): 70
Kochia plant response rating (0 to 100 scale) (kochia (Bassia scoparia) [16]; [30]): 30
Corn plant response rating (0-100) (corn (Zea mays) [17]; [29]): 100
Corn plant response rating (0 to 100 scale) (corn (Zea mays) [17]; [30]): 90
Wheat plant response rating (0-100) [18, 29]: 90
Wheat plant response rating (0 to 100 scale) [18, 30]: 80
Ryegrass, Italian plant response rating (0-100) [19, 29]: 80
Ryegrass, Italian plant response rating (0 to 100 scale) [19, 30]: 20
Soybean plant response rating (0-100) (soybean (Glycine max) [20]; [29]): 60
Soybean plant response rating (0 to 100 scale) (soybean (Glycine max) [20]; [30]): 60
Blackgrass plant response rating (0-100) [21, 29]: 100
Blackgrass plant response rating (0 to 100 scale) [21, 30]: 90
Ragweed plant response rating (0-100) [22, 29]: 50
Ragweed plant response rating (0 to 100 scale) [22, 30]: 30
Foxtail, Green plant response rating (0-100) [23, 29]: 90
Foxtail, Green plant response rating (0 to 100 scale) [23, 30]: 90
Pigweed, Palmer plant response rating (0-100) [24, 29]: 70
Pigweed, Palmer plant response rating (0 to 100 scale) [24, 30]: 20
Oat, Wild plant response rating (0-100) [25, 29]: 90
Oat, Wild plant response rating (0 to 100 scale) [25, 30]: 30
Horseweed plant response rating (0-100) [26, 29]: 0
Horseweed plant response rating (0 to 100 scale) [26, 30]: 0
Barnyardgrass plant response rating (0-100) [27, 29]: 100
Barnyardgrass plant response rating (0 to 100 scale) [27, 30]: 50
